Reference: patent US9045481B2 (priority 2012, dated 2015)

Tests used:
[1] = CNS penetration across the blood brain barrier; assay type: in vivo, mice
Procedure: Mice are dosed with compounds. Brain to blood ratios are determined by HPLC and LC/MS/MS analysis following oral administration of the test compounds in mice.

a3b4 nAChRs = a3b4 nAChRs (Homo sapiens, UniProt P30926+P32297); assay: Relative potency at a3b4 nAChRs (epibatidine-induced calcium response), cell line not stated; assay type: cell-based
Procedure: Nicotinic functional assays are performed using the Molecular Devices FLIPR® Calcium 5 Assay Kit. HEK293 cells overexpressing a3β4, a4β2 or α7 (50,000 cells per well in 100 μl growth media) and are plated in clear bottom black walled 96-well microplates and incubated for 24-48 hours at 37° C., 5% CO2 until a 80-90% confluent monolayer is formed. On the day of the assay, 100 μl of Calcium 5 Dye is added to each well. Following addition of dye, cells are incubated at 25° C. for 60 minutes. Following dye loading, 50 μl of a 5× solution of reference or test compound of appropriate concentration range (0.01-30 μM), prepared in 20 mM HEPES pH 7.4 in HBSS, is added to each well. Plates are then transferred to the Molecular Devices Flexstation® which transfers 50 μL of a 5× solution (500 nM) of epibatine to each well to initiate the Ca+2 flux. Additional wells (in quadruplicate) are prepared with no added test or reference ligand for measurement of 100% flux. The RFU (relative fluorescence units) in the presence of the test or reference compounds is then expressed on the percent scale. The percent inhibition of epibatidine induced Ca^+2 flux is calculated as follows: % inhibition=100%−% RFU (relative fluorescence units). The IC50 values for reference and test compounds are obtained by fitting normalized RFU data using Graphpad Prism software.

mu opioid receptor (mOR) = target: T1, mu opioid receptor (mOR) (Homo sapiens, UniProt P35372); assay: Mu opioid receptor radioligand binding; conditions: called weak affinity; read-out: Affinity at mu opioid receptors
T1 construct: expressed in transfected cells; host or cells: CHO or HEK293
Procedure: Established radioligand binding methods are used to evaluate the ability of the compounds to block reuptake of serotonin and dopamine in membrane preparations of synaptosomes. Equilibrium binding affinity values is determined for each compound at opioid receptors (μ and κ subtypes) and biogenic amine transporters (DAT and SERT). Where possible, binding experiments utilize membranes derived from CHO or HEK293 cells engineered to overexpress the human form of the receptor or transporter of interest. Radiolabeling of opioid receptors, and biogenic amine transporters utilizes conventional radioligands, buffers and incubation conditions according to published assays.
Test compounds, reference compounds and the radioligand (Kd value) are added to binding buffer. Assays are run with test or reference compound over a range of concentration (0.0001-10 uM) in triplicate using a 96-well sample plate containing radioligands specific for the target receptor or transporter. […] Bound radioactivity is counted in a Microbeta scintillation counter. Total bound radioactivity is estimated from triplicate wells containing no test or reference compound, together with nonspecific binding and filter blanks. The average bound radioactivity in the presence of the test compounds is expressed % inhibition=100%−% radioactivity bound. […]

Sequence of a3b4 nAChRs (P30926 22-498): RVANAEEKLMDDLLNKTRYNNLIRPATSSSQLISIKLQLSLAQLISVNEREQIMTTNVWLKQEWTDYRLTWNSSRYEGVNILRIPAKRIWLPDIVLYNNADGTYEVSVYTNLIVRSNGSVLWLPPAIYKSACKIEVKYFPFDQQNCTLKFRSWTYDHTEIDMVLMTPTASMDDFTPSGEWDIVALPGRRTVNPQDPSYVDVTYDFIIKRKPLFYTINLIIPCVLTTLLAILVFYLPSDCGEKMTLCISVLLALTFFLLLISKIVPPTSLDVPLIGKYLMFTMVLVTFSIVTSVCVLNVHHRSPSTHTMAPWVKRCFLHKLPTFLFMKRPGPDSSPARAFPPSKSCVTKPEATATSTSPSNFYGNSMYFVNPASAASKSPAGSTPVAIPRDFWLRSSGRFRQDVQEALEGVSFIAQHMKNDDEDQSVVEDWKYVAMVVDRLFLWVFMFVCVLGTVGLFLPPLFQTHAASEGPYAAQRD
Sequence of a3b4 nAChRs (P32297 32-505): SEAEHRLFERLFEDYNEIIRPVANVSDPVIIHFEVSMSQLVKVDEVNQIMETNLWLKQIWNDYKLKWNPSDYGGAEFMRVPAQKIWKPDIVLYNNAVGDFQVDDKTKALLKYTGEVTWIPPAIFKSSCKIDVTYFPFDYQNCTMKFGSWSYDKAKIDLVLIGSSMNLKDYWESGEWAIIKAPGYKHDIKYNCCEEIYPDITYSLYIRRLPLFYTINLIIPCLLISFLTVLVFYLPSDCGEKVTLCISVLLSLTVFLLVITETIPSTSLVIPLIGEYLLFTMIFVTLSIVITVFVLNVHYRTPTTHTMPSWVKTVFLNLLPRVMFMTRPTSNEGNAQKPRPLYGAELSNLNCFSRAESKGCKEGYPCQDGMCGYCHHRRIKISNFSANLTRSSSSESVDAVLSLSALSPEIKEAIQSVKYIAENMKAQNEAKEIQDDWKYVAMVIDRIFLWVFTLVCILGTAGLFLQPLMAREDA
T1 sequence (P35372 whole entry): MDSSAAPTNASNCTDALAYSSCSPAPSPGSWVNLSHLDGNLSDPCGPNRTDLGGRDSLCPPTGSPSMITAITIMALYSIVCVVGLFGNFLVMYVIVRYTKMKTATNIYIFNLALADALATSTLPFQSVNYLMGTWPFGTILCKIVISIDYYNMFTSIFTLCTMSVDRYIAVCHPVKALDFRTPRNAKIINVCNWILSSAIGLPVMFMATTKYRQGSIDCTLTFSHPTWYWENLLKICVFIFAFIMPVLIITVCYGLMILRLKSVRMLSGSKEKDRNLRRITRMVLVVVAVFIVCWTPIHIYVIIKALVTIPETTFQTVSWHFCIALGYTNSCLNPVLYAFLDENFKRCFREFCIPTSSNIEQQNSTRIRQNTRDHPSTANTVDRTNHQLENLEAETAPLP

Compound	Crossing of the BBB / concentration in brain [1]	Ratio from 18-MC (relative potency at a3b4 nAChRs) (a3b4 nAChRs; ratio to 18-MC = 1, lower is more potent)	Ki (mu opioid receptor (mOR)) [nM]	Potency as inhibitor of the epibatidine-induced calcium response in a3b4 nAChRs, in words (a3b4 nAChRs; compared with 18-MC and noribogaine)
COCC[C@H]1CC2CN3CCc4c([nH]c5ccccc45)[C@](C(=O)OC)(C2)[C@H]13 [Compound 18-MC, 18-methoxycoronaridine]	cross the BBB and reach micromolar concentrations in brain	1		
CC[C@H]1CC2C[C@H]3c4[nH]c5ccc(O)cc5c4CCN(C2)C13 [Noribogaine, 12-hydroxyibogamine]	cross the BBB and reach micromolar concentrations in brain		900	
Ibogaine				more potent inhibitors than 18-MC
